Assay results as given in ChEMBL document CHEMBL3217701, “Squaric acid: a valuable scaffold for developing antimalarials?” (Medchemcomm, 2012).

Tests used:
Plasmodium falciparum = test: Antiplasmodial activity against chloroquine-resistant ring stage of Plasmodium falciparum W2 infected in human RBC after 48 hrs by flow cytometric analysis; format: functional, organism-based; conditions: W2, 48 h
Papain = molecular target: T1, Papain (Carica papaya, UniProt P00784); test: Inhibition of papaya papain using Z-Leu-Leu-Arg-AMC as substrate measured for 30 mins by fluorescence assay
T1 sequence (P00784 whole entry): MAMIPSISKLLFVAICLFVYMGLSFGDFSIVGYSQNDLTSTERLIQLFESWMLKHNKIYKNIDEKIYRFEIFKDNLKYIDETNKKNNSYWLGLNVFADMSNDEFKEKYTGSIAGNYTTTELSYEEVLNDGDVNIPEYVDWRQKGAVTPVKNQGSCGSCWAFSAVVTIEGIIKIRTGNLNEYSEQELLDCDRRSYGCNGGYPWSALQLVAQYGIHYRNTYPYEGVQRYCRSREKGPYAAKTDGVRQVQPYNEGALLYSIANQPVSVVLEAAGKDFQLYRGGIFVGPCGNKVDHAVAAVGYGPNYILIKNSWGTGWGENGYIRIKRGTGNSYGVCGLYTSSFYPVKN

[1] = Inhibition of Plasmodium falciparum falcipain-2 using Z-Leu-Arg-AMC as substrate after 10 mins by spectrofluorometric analysis
[2] = Selectivity index, ratio of IC50 for HEK293T cells to IC50 for chloroquine-resistant ring stage of Plasmodium falciparum W2; format: toxicity, cell-based, HEK-293T; conditions: human; read-out: Ratio IC50
HEK-293T = test: Cytotoxicity against HEK293T cells assessed as inhibition of cell viability after 48 hrs by MTT assay; format: cell-based; conditions: Homo sapiens
[3] = Cytotoxicity against mouse NIH/3T3 cells assessed as inhibition of cell viability after 48 hrs by MTT assay; format: cell-based; conditions: NIH3T3, 48 h

| Compound | IC50 (Plasmodium falciparum) | IC50 (Papain) | IC50 [1] | selectivity ratio [2] | IC50 (HEK-293T) | IC50 [3] |
| --- | --- | --- | --- | --- | --- | --- |
| COc1cccc(Nc2c(Nc3cccc(OC)c3)c(=O)c2=O)c1 | > 10 µM | > 5 µM | > 50 µM | – | – | – |
| CCN(CC)CCCNc1c(NCCCN(CC)CC)c(=O)c1=O | > 10 µM | > 10 µM | > 50 µM | – | – | – |
| COc1c(Nc2ccc(N3CCCCC3)cc2)c(=O)c1=O | > 10 µM | > 10 µM | – | – | – | – |
| COc1c(Nc2ccc(C(C)(C)C)cc2)c(=O)c1=O | > 10 µM | > 10 µM | – | – | – | – |
| COc1c(Nc2ccc(Cl)cc2)c(=O)c1=O | > 10 µM | > 10 µM | – | – | – | – |
| COc1ccc(Nc2c(OC)c(=O)c2=O)cc1 | > 10 µM | > 10 µM | – | – | – | – |
| COc1c(Nc2cccnc2)c(=O)c1=O | > 10 µM | > 10 µM | – | – | – | – |
| COc1c(NC(CO)Cc2ccccc2)c(=O)c1=O (configuration not stated) | > 10 µM | > 10 µM | > 50 µM | – | – | – |
| CCCCOc1c(Nc2ccc(N3CCCCC3)cc2)c(=O)c1=O | 3.13 µM | > 10 µM | – | > 32 | > 100 µM | > 100 µM |
| CCCCOc1c(Nc2ccc(C(C)(C)C)cc2)c(=O)c1=O | 2.65 µM | > 10 µM | > 50 µM | 4.7 | 12.3 µM | 17.5 µM |
| O=c1c(Nc2ccc(N3CCCCC3)cc2)c(Nc2ccc(N3CCCCC3)cc2)c1=O | 4.16 µM | 2.8 µM | > 50 µM | > 12 | > 50 µM | > 50 µM |
| CC(C)(C)c1ccc(Nc2c(Nc3ccc(C(C)(C)C)cc3)c(=O)c2=O)cc1 | 0.99 µM | 8.1 µM | 24.3 µM | > 101 | > 100 µM | > 100 µM |
| O=c1c(Nc2cccnc2)c(Nc2cccnc2)c1=O | > 10 µM | > 10 µM | – | – | – | – |
| O=c1c(NC(CO)Cc2ccccc2)c(NC(CO)Cc2ccccc2)c1=O (configuration not stated) | > 10 µM | > 10 µM | – | – | – | – |
| CN(C)CCNc1c(NCCN(C)C)c(=O)c1=O | > 10 µM | > 10 µM | – | – | – | – |
| CCN(CC)CCNc1c(NCCN(CC)CC)c(=O)c1=O | > 10 µM | > 10 µM | > 50 µM | – | – | – |
| CN(C)CCCNc1c(NCCCN(C)C)c(=O)c1=O | > 10 µM | > 10 µM | – | – | – | – |
| CC(C)NCCCNc1c(NCCCNC(C)C)c(=O)c1=O | > 10 µM | > 10 µM | > 50 µM | – | – | – |
| CN(C)CC(C)(C)CNc1c(NCC(C)(C)CN(C)C)c(=O)c1=O | > 10 µM | > 10 µM | – | – | – | – |
| CCN(CC)CCCC(C)Nc1c(NC(C)CCCN(CC)CC)c(=O)c1=O (configuration not stated) | > 10 µM | > 10 µM | – | – | – | – |
| CCCCNc1c(NCCCC)c(=O)c1=O | > 10 µM | > 10 µM | – | – | – | – |

| Compound | IC50 (Plasmodium falciparum) | IC50 (Papain) | IC50 [1] | selectivity ratio [2] | IC50 (HEK-293T) | IC50 [3] |
| --- | --- | --- | --- | --- | --- | --- |
| CC(Nc1c(NC(C)c2ccccc2)c(=O)c1=O)c1ccccc1 (configuration not stated) | > 10 µM | > 10 µM | – | – | – | – |
| O=c1c(NC2CCCCC2)c(NC2CCCCC2)c1=O | > 10 µM | > 10 µM | – | – | – | – |
| COc1c(NNC(=O)[C@H](CC(C)C)NC(=O)OC(C)(C)C)c(=O)c1=O | 8.53 µM | > 10 µM | – | > 12 | > 100 µM | > 100 µM |
| COc1c(N(Cc2ccccc2)NC(=O)[C@H](CC(C)C)NC(=O)OC(C)(C)C)c(=O)c1=O | > 1 µM | > 10 µM | – | – | – | – |
| COc1c(N(CCc2ccccc2)NC(=O)[C@H](CC(C)C)NC(=O)OC(C)(C)C)c(=O)c1=O | 6.36 µM | > 10 µM | – | > 16 | > 100 µM | > 100 µM |
| COc1c(NNC(=O)[C@H](CC(C)C)NC(=O)N2CCOCC2)c(=O)c1=O | > 10 µM | > 10 µM | – | – | – | – |
| COc1c(N(CCc2ccccc2)NC(=O)[C@H](CC(C)C)NC(=O)N2CCOCC2)c(=O)c1=O | > 10 µM | > 10 µM | – | – | – | – |
| COc1c(N(CCc2ccccc2)NC(=O)[C@H](CC(C)C)NC(=O)OCc2ccccc2)c(=O)c1=O | 2.99 µM | > 10 µM | – | > 33 | > 100 µM | > 100 µM |
| COc1c(N(CCc2ccccc2)NC(=O)CNC(=O)OCc2ccccc2)c(=O)c1=O | 9.36 µM | > 10 µM | – | > 11 | > 100 µM | > 100 µM |
| COc1c(N(CCc2ccccc2)NC(=O)[C@H](Cc2ccccc2)NC(=O)OCc2ccccc2)c(=O)c1=O | 3.14 µM | > 10 µM | – | > 32 | > 100 µM | > 100 µM |
| CCCCOc1c(NNC(=O)[C@H](CC(C)C)NC(=O)OC(C)(C)C)c(=O)c1=O | > 10 µM | > 10 µM | – | – | – | – |
| CCCCOc1c(N(CCc2ccccc2)NC(=O)[C@H](CC(C)C)NC(=O)OC(C)(C)C)c(=O)c1=O | > 10 µM | > 10 µM | – | – | – | – |
| CCCCOc1c(NNC(=O)[C@H](CC(C)C)NC(=O)N2CCOCC2)c(=O)c1=O | 9.45 µM | > 10 µM | – | > 11 | > 100 µM | > 100 µM |
| CCCCOc1c(N(CCc2ccccc2)NC(=O)[C@H](CC(C)C)NC(=O)N2CCOCC2)c(=O)c1=O | > 10 µM | > 10 µM | – | – | – | – |
| CCCCOc1c(N(CCc2ccccc2)NC(=O)[C@H](CC(C)C)NC(=O)OCc2ccccc2)c(=O)c1=O | 4.51 µM | > 10 µM | – | > 22 | > 100 µM | > 100 µM |
| CCCCOc1c(N(CCc2ccccc2)NC(=O)CNC(=O)OCc2ccccc2)c(=O)c1=O | 5.17 µM | > 10 µM | – | > 19 | > 100 µM | > 100 µM |
| CCCCOc1c(N(CCc2ccccc2)NC(=O)[C@H](Cc2ccccc2)NC(=O)OCc2ccccc2)c(=O)c1=O | 4.69 µM | > 10 µM | – | > 21 | > 100 µM | > 100 µM |
| CC(C)C[C@H](Nc1c(Nc2ccc(C(C)(C)C)cc2)c(=O)c1=O)C(=O)NN(Cc1ccccc1)C(=O)/C=C/S(=O)(=O)c1ccccc1 | > 10 µM | – | – | – | – | – |
| CC(C)C[C@H](Nc1c(NC(CO)Cc2ccccc2)c(=O)c1=O)C(=O)NN(Cc1ccccc1)C(=O)/C=C/S(=O)(=O)c1ccccc1 (some centres not stated) | > 10 µM | – | – | – | – | – |
| CC(C)C[C@H](NC(=O)[C@H]1O[C@@H]1C(=O)O)C(=O)NCCCCN=C(N)N [E-64] | – | 0.12 µM | 0.06 µM | – | – | – |
